Reference: patent publication US8278480B2, “Salts, aqueous liquid compositions containing salts of S-(+)-abscisic acid and methods of their preparation” (Valent BioSciences Corporation, priority 2008, dated 2012)
Several values for one entry are separate records, joined by “and”; a condition that tells them apart may be missing. Equal values may be shown once. Where a name gives a salt, the structure may show the parent alone.

Assays:
[1] = tested on: tomato shoot fresh weight; assay: Tomato shoot fresh weight 7 days after treatment (growth suppression); type: in vivo, Tomato (variety: Rutgers); conditions: foliar spray
Experimental: (§1) Preparation of plant specimens for use in the treatment studies of the EXAMPLES that follow was carried out as follows. Tomato (variety: Rutgers) seeds were sown in an 18-cell flat filled with Promix PGX (available from Premier Horticulture Inc., Quakertown Pa.) and grown for 3 weeks to allow for germination and initial growth. Plants were then transplanted into pots (18 cm in diameter and 18 cm in height), filled with Promix BX (available from Premier Horticulture Inc., Quakertown Pa.), and grown for one or two more weeks before treatment, depending on temperature and available light. Plants received daily irrigation and weekly fertilizer (1 g/L all purpose fertilizer 20-20-20, available from The Scotts Company, Marysville, Ohio).
(§2) All treatment solutions were made up with distilled water. The (S)-(+)-abscisic acid (95% active ingredient) is available from Lomon BioTechnology Co., Ltd. (Shichuan, China). The prior art aqueous solution composition of the ammonium salt of (S)-(+)-abscisic acid as prepared in Example 11 above was used as a positive treatment control for most of the studies.
(§3) All experiments were conducted using a randomized complete block experimental design. Solutions of (S)-(+)-abscisic acid and blank treatments (plain water) were applied by spray to the aerial parts of the tomato plants at the rate of 24 mL per 6 plants. Plants were then placed in a transparent chamber with humidity controlled within the range of 40 to 60% relative humidity. Leaf transpiration rates were measured at 1, 2, 3, 4 and 7 days after treatment. Measurements were conducted using a LI-1600 Steady State Porometer (LI-Cor, Lincoln, Nebr.). Each day the transpiration rate of the plants of each treatment group was normalized to a percentage of the transpiration rate of untreated plants (plants sprayed with water only) in order to control for day-to-day variability in plant status caused by changes of environmental conditions such as light intensity and temperature. Data for each plant was also averaged over a 3-day period to balance the short term and long term effect of (S)-(+)-abscisic acid on tomato leaf transpiration as well as to reduce experimental variability.
In this experiment, the fresh weights of the aerial parts of the tomato plants were also measured at the end of the experiment, 7 days after treatments were applied, in order to assess the relative growth suppressing activity of the compositions.

[2] = tested on: tomato leaf transpiration; assay: Tomato leaf transpiration inhibition after foliar spray (LI-1600 porometer); type: in vivo, Tomato (variety: Rutgers); conditions: for Transpiration rate (% of control), 1 day after treatment: day 1; for Transpiration rate (% of control), 2 days after treatment: day 2; for Transpiration rate (% of control), 3 days after treatment: day 3; for Transpiration rate (% of control), 4 days after treatment: day 4; for Transpiration rate (% of control), 7 days after treatment: day 7; for ABA dose to achieve 50% inhibition of transpiration: from linear regression of 3-day average transpiration rate on log dose; for Transpiration rate (% of control), 9 days after treatment: day 9
Experimental: as §1, §2, §3
The regression equation of each (S)-(+)-abscisic acid salt as well as abscisic acid concentrations for 50% inhibition of transpiration were calculated. The relative potency of two ABA salts is the reciprocal of the ratio of (S)-(+)-abscisic acid concentration required for 50% transpiration inhibition for each composition.

[3] = tested on: tomato plants; assay: Phytotoxicity observed on treated tomato plants; type: in vivo, Tomato (variety: Rutgers)
Experimental: as §3, with “variability. It is important to note that no phytotoxicity was observed on any of the plants treated with the compositions of the present invention.” for “variability.”

[4] = tested on: tomato plant height; assay: Tomato plant height 7 days after treatment (growth suppression); type: in vivo, Tomato (variety: Rutgers); conditions: foliar spray
Experimental: as §1, §2
as §3, with “variability. It is important to note that no phytotoxicity was observed on any of the plants treated with the compositions of the present invention.” for “variability.”
In this experiment, the fresh weights of the aerial parts of the tomato plants and their heights were also measured at the end of the experiment, 7 days after treatments were applied, in order to assess the relative growth suppressing activity of the compositions.

[5] = cited from earlier work
[6] = 75 ppm (0.3 mg) (S)-(+)-abscisic acid
[7] = 250 ppm (1 mg) (S)-(+)-abscisic acid, additives as in label
[8] = 750 ppm (3 mg) (S)-(+)-abscisic acid
[9] = 2500 ppm (10 mg) (S)-(+)-abscisic acid
[10] = (S)-(+)-abscisic acid dose 0.3 mg, foliar spray
[11] = (S)-(+)-abscisic acid dose 1 mg, foliar spray
[12] = (S)-(+)-abscisic acid dose 3 mg, foliar spray
[13] = (S)-(+)-abscisic acid dose 10 mg, foliar spray
[14] = foliar spray, 250 ppm (S)-(+)-abscisic acid (1 mg), additives as in label
[15] = reciprocal of ratio of doses for 50% transpiration inhibition
[16] = tomato plants after foliar spray

SMILES | Fresh weight (g) 7 days after treatment [1, 6] | Fresh weight (g) 7 days after treatment [1, 7] | Fresh weight (g) 7 days after treatment [1, 8] | Fresh weight (g) 7 days after treatment [1, 9] | Transpiration rate (% of control), Average of 3 days after treatment [2, 10] | Transpiration rate (% of control), Average of 3 days after treatment [2, 11] | Transpiration rate (% of control), Average of 3 days after treatment [2, 12] | Transpiration rate (% of control), Average of 3 days after treatment [2, 13] | Transpiration rate (% of control), 7-Day Average [2, 14] | Transpiration rate (% of control), 1 day after treatment [2, 14] | Transpiration rate (% of control), 2 days after treatment [2, 14] | Transpiration rate (% of control), 3 days after treatment [2, 14] | Transpiration rate (% of control), 4 days after treatment [2, 14] | Transpiration rate (% of control), 7 days after treatment [2, 14] | ABA dose to achieve 50% inhibition of transpiration [2] | Relative potency compared to the ammonium salt composition of Comparative Example 11 [2, 15] | Phytotoxicity [3, 16] | Transpiration rate (% of control), 9-Day Average [2, 14] | Transpiration rate (% of control), 9 days after treatment [2, 14] | further results
CC1=CC(=O)CC(C)(C)[C@@]1(O)/C=C/C(C)=C\C(=O)[O-].[Rb+] [Example 1, Rubidium Salt of (S)-(+)-Abscisic Acid] | 18.6 g | 18.1 g | 17.2 g | 16.4 g | 77 % of control | 67 % of control | 54 % of control | 39 % of control | 75.9 % of control | 55.8 % of control | 68.0 % of control | 76.5 % of control | 88.2 % of control | 91.0 % of control | 4.05 mg | 2.4 times | without producing phytotoxicity |  |  | 
CC1=CC(=O)CC(C)(C)[C@@]1(O)/C=C/C(C)=C\C(=O)[O-].[Cs+] [Example 2, Cesium Salt of (S)-(+)-Abscisic Acid] | 16.2 g | 15.3 g | 14.7 g | 11.3 g | 72 % of control | 57 % of control | 47 % of control | 37 % of control | 67.8 % of control | 47.1 % of control | 59.0 % of control | 63.9 % of control | 77.8 % of control | 91.1 % of control | 2.41 mg | 3.2 times and 2.8 times | without producing phytotoxicity |  |  | 
CC1=CC(=O)CC(C)(C)[C@@]1(O)/C=C/C(C)=C\C(=O)[O-].CCCC[N+](CCCC)(CCCC)CCCC [Example 4, Tetrabutylammonium Salt of (S)-(+)-Abscisic Acid] | 15.3 g | 14.8 g | 12.5 g | 11.4 g | 84 % of control and 80 % of control | 72 % of control and 61 % of control | 56 % of control and 47 % of control | 38 % of control and 29 % of control | 70.9 % of control | 63.4 % of control and 55.1 % of control | 73.9 % of control and 61.0 % of control | 77.8 % of control and 68.3 % of control | 79.3 % of control and 77.6 % of control | 89.2 % of control and 92.4 % of control | 4.35 mg and 2.33 mg |  | without producing phytotoxicity | 79.7 % of control | 94.6 % of control | Relative potency compared to the tributylamine salt composition of Comparative Example 14 [2, 15]: 1.9 times
CC1=CC(=O)CC(C)(C)[C@@]1(O)/C=C/C(C)=C\C(=O)[O-].C[N+](C)(C)CCO [Example 5, Choline Salt of (S)-(+)-abscisic Acid] | 18.2 g | 17.5 g | 16.8 g | 16.0 g | 78 % of control | 63 % of control | 53 % of control | 41 % of control | 72.5 % of control | 52.3 % of control | 63.7 % of control | 73.8 % of control | 79.0 % of control | 93.4 % of control | 4.02 mg | 2.6 times and 4.2 times |  |  |  | Phytotoxicity ([3]; in vivo): without producing phytotoxicity
CC1=CC(=O)CC(C)(C)[C@@]1(O)/C=C/C(C)=C\C(=O)O [Example 11, Ammonium Salt of (S)-(+)-Abscisic Acid, reference compound] |  |  |  |  | 82 % of control and 80 % of control and 77 % of control and 95 % of control and 90 % of control and 81 % of control and 88 % of control | 72 % of control and 69 % of control and 65 % of control and 78 % of control and 70 % of control and 77 % of control and 71 % of control | 60 % of control and 58 % of control and 55 % of control and 67 % of control and 59 % of control and 62 % of control and 57 % of control | 50 % of control and 48 % of control and 44 % of control and 53 % of control and 51 % of control and 52 % of control and 55 % of control and 49 % of control |  |  |  |  |  |  |  |  |  | 87.3 % of control | 100.8 % of control | Transpiration rate (% of control), 4 Day Average ([2]; foliar spray, 250 ppm (S)-(+)-abscisic acid (1 mg), additives as in label, 4-day average): 75.4 % of control; Plant height (cm) 7 days after treatment [4, 6]: 19.9 cm; Plant height (cm) 7 days after treatment [4, 7]: 19.8 cm and 32.1 cm; Plant height (cm) 7 days after treatment [4, 8]: 18.6 cm; Plant height (cm) 7 days after treatment [4, 9]: 18.6 cm
CC1=CC(=O)CC(C)(C)[C@@]1(O)/C=C/C(C)=C\C(=O)O [abscisic acid, 2-cis-,4-trans-(S)-(+)-abscisic acid] |  |  |  |  |  |  |  |  |  |  |  |  |  |  |  |  |  |  |  | Solubility in propylene glycol ([5]; propylene glycol): poorly soluble; Solubility in water (highest concentration achievable) ([5]; pure water, room / ordinary ambient temperature): ≤ 3000 ppm
